Columns and labels:
[1] = tested on: S. typhimurium ATCC 14028; assay: micro-dilution broth method (MIC, MBC); type: cell-based, Salmonella Typhimurium
[2] = tested on: C. perfringens ATCC 13124; assay: microbe, parasite or virus in culture; type: cell-based, Clostridium perfringens
Caco-2 cells [3] = assay: TPC assay (total protein content), 72 h exposure; type: cell-based, human; conditions: Caco-2, TPC, Figure 6
P. aeruginosa ATCC 9027 = assay: micro-dilution broth method (MIC, MBC); type: cell-based, Pseudomonas aeruginosa
Caco-2 cells [4] = assay: LDH leakage assay (membrane integrity), 72 h exposure; type: cell-based, human; conditions: Caco-2, LDH, Figure 6
B. fragilis ATCC 10240 = assay: micro-dilution broth method (MIC, MBC); type: cell-based, Bacteroides fragilis
P. intermedia ATCC 25611 = assay: micro-dilution broth method (MIC, MBC); type: cell-based
K. pneumoniae ATCC 13883 = assay: micro-dilution broth method (MIC, MBC); type: cell-based, Klebsiella pneumoniae
H. pylori ATCC 43504 = assay: micro-dilution broth method (MIC, MBC); type: cell-based
F. nucleatum ATCC 25586 = assay: micro-dilution broth method (MIC, MBC); type: cell-based, Fusobacterium nucleatum
E. faecalis ATCC 29212 = assay: micro-dilution broth method (MIC, MBC); type: cell-based, Enterococcus faecalis
S. aureus ATCC 25923 = assay: micro-dilution broth method (MIC, MBC); type: cell-based, Staphylococcus aureus
C. jejunii ATCC 33291 = assay: micro-dilution broth method (MIC, MBC); type: cell-based, Campylobacter jejunii
M. luteus ATCC 10240 = assay: micro-dilution broth method (MIC, MBC); type: cell-based, Micrococcus luteus
V. parvula ATCC 10790 = assay: micro-dilution broth method (MIC, MBC); type: cell-based, Veillonella parvula
[5] = tested on: S. epidermidis ATCC 12228; assay: micro-dilution broth method (MIC, MBC); type: cell-based, Staphylococcus epidermidis
Caco-2 cells [6] = assay: NRU assay (lysosomal activity), 72 h exposure; type: cell-based, human; conditions: Caco-2, NRU, Figure 6
S. aureus biofilm = assay: qualitative antibiofilm activity, confocal laser scanning microscope (CLSM); conditions: 500 mg/L, 24 h exposure
Caco-2 cells [7] = assay: MTT assay (mitochondrial activity), 72 h exposure; type: cell-based, human; conditions: Caco-2, MTT, Figure 6
B. cereus ATCC 10876 = assay: micro-dilution broth method (MIC, MBC); type: cell-based, Bacillus cereus
P. acnes ATCC 11827 = assay: micro-dilution broth method (MIC, MBC); type: cell-based, Propionibacterium acnes; conditions: P. acnes ATCC 11827, value in brackets
E. coli ATCC 25922 = assay: micro-dilution broth method (MIC, MBC); type: cell-based, Escherichia coli
B. subtilis ATCC 6633 = assay: micro-dilution broth method (MIC, MBC); type: cell-based, Bacillus subtilis
[8] = tested on: reference aerobic and anaerobic microorganisms (ATCC); assay: micro-dilution broth method, whole panel of reference strains; type: cell-based; conditions: against the majority of tested bacterial strains
A. israeli ATCC 10049 = assay: micro-dilution broth method (MIC, MBC); type: cell-based, Actinomyces israelii
[9] = S. typhimurium ATCC 14028, value in brackets
[10] = C. perfringens ATCC 13124, value in brackets
[11] = P. aeruginosa ATCC 9027, value in brackets
[12] = B. fragilis ATCC 10240, value in brackets
[13] = P. intermedia ATCC 25611, value in brackets
[14] = K. pneumoniae ATCC 13883, value in brackets
[15] = H. pylori ATCC 43504, value in brackets
[16] = F. nucleatum ATCC 25586, value in brackets
[17] = E. faecalis ATCC 29212, value in brackets
[18] = S. aureus ATCC 25923, value in brackets
[19] = C. jejunii ATCC 33291, value in brackets
[20] = M. luteus ATCC 10240, value in brackets
[21] = V. parvula ATCC 10790, value in brackets
[22] = S. epidermidis ATCC 12228, value in brackets
[23] = B. cereus ATCC 10876, value in brackets
[24] = E. coli ATCC 25922, value in brackets
[25] = B. subtilis ATCC 6633, value in brackets
[26] = A. israeli ATCC 10049, value in brackets

Compound: Cc1ncc([N+](=O)[O-])n1CCO.Cc1ncc([N+](=O)[O-])n1CCO.O=[N+]([O-])[O-].[Ag+] [[Ag(MTZ)2NO3]]
- MBC ([1]; S. typhimurium ATCC 14028): 31.3 mg/L
- MIC ([1]; S. typhimurium ATCC 14028): 15.6 mg/L
- MBC [1, 9]: 0.1 µM/mL
- MIC [1, 9]: 0.049 µM/mL
- MBC ([2]; C. perfringens ATCC 13124): 1.95 mg/L
- MIC ([2]; C. perfringens ATCC 13124): 1.95 mg/L
- MBC [2, 10]: 0.006 µM/mL
- MIC [2, 10]: 0.006 µM/mL
- lowest concentration with decreased total protein content (Caco-2 cells [3]): 10.0 µM
- MBC (P. aeruginosa ATCC 9027; P. aeruginosa ATCC 9027): 15.6 mg/L
- MIC (P. aeruginosa ATCC 9027; P. aeruginosa ATCC 9027): 7.8 mg/L
- MBC (P. aeruginosa ATCC 9027; [11]): 0.049 µM/mL
- MIC (P. aeruginosa ATCC 9027; [11]): 0.025 µM/mL
- lowest concentration with significant (p ≤ 0.05) disintegration of cellular membranes (Caco-2 cells [4]): 1.0 µM
- MBC (B. fragilis ATCC 10240; B. fragilis ATCC 10240): 0.98 mg/L
- MIC (B. fragilis ATCC 10240; B. fragilis ATCC 10240): 0.98 mg/L
- MBC (B. fragilis ATCC 10240; [12]): 0.003 µM/mL
- MIC (B. fragilis ATCC 10240; [12]): 0.003 µM/mL
- MBC (P. intermedia ATCC 25611; P. intermedia ATCC 25611): 0.98 mg/L
- MIC (P. intermedia ATCC 25611; P. intermedia ATCC 25611): 0.98 mg/L
- MBC (P. intermedia ATCC 25611; [13]): 0.003 µM/mL
- MIC (P. intermedia ATCC 25611; [13]): 0.003 µM/mL
- MBC (K. pneumoniae ATCC 13883; K. pneumoniae ATCC 13883): 31.3 mg/L
- MIC (K. pneumoniae ATCC 13883; K. pneumoniae ATCC 13883): 15.6 mg/L
- MBC (K. pneumoniae ATCC 13883; [14]): 0.1 µM/mL
- MIC (K. pneumoniae ATCC 13883; [14]): 0.049 µM/mL
- MBC (H. pylori ATCC 43504; H. pylori ATCC 43504): 15.6 mg/L
- MIC (H. pylori ATCC 43504; H. pylori ATCC 43504): 15.6 mg/L
- MBC (H. pylori ATCC 43504; [15]): 0.049 µM/mL
- MIC (H. pylori ATCC 43504; [15]): 0.049 µM/mL
- MBC (F. nucleatum ATCC 25586; F. nucleatum ATCC 25586): 0.98 mg/L
- MIC (F. nucleatum ATCC 25586; F. nucleatum ATCC 25586): 0.49 mg/L
- MBC (F. nucleatum ATCC 25586; [16]): 0.003 µM/mL
- MIC (F. nucleatum ATCC 25586; [16]): 0.0015 µM/mL
- MBC (E. faecalis ATCC 29212; E. faecalis ATCC 29212): 62.5 mg/L
- MIC (E. faecalis ATCC 29212; E. faecalis ATCC 29212): 31.3 mg/L
- MBC (E. faecalis ATCC 29212; [17]): 0.2 µM/mL
- MIC (E. faecalis ATCC 29212; [17]): 0.1 µM/mL
- MBC (S. aureus ATCC 25923; S. aureus ATCC 25923): 62.5 mg/L
- MIC (S. aureus ATCC 25923; S. aureus ATCC 25923): 15.6 mg/L
- MBC (S. aureus ATCC 25923; [18]): 0.2 µM/mL
- MIC (S. aureus ATCC 25923; [18]): 0.049 µM/mL
- MIC (C. jejunii ATCC 33291; C. jejunii ATCC 33291): 31.3 mg/L
- MBC (C. jejunii ATCC 33291; [19]): 0.4 µM/mL
- MIC (C. jejunii ATCC 33291; [19]): 0.1 µM/mL
- MBC (M. luteus ATCC 10240; M. luteus ATCC 10240): 62.5 mg/L
- MIC (M. luteus ATCC 10240; M. luteus ATCC 10240): 7.8 mg/L
- MBC (M. luteus ATCC 10240; [20]): 0.2 µM/mL
- MIC (M. luteus ATCC 10240; [20]): 0.025 µM/mL
- MBC (V. parvula ATCC 10790; V. parvula ATCC 10790): 1.95 mg/L
- MIC (V. parvula ATCC 10790; V. parvula ATCC 10790): 1.95 mg/L
- MBC (V. parvula ATCC 10790; [21]): 0.006 µM/mL
- MIC (V. parvula ATCC 10790; [21]): 0.006 µM/mL
- MBC ([5]; S. epidermidis ATCC 12228): 62.5 mg/L
- MIC ([5]; S. epidermidis ATCC 12228): 7.8 mg/L
- MBC [5, 22]: 0.2 µM/mL
- MIC [5, 22]: 0.025 µM/mL
- lowest concentration with inhibition of lysosomal activity (Caco-2 cells [6]): 5.0 µM
- effect on biofilm (CLSM, qualitative) (S. aureus biofilm): significantly reduced biofilm density
- lowest concentration with inhibition of mitochondrial activity (Caco-2 cells [7]): 5.0 µM
- MIC (B. cereus ATCC 10876; B. cereus ATCC 10876): 62.5 mg/L
- MBC (B. cereus ATCC 10876; [23]): 0.4 µM/mL
- MIC (B. cereus ATCC 10876; [23]): 0.2 µM/mL
- MBC (P. acnes ATCC 11827): 0.4 µM/mL
- MIC (P. acnes ATCC 11827): 0.4 µM/mL
- MBC (E. coli ATCC 25922; E. coli ATCC 25922): 31.3 mg/L
- MIC (E. coli ATCC 25922; E. coli ATCC 25922): 15.6 mg/L
- MBC (E. coli ATCC 25922; [24]): 0.1 µM/mL
- MIC (E. coli ATCC 25922; [24]): 0.049 µM/mL
- MBC (B. subtilis ATCC 6633; B. subtilis ATCC 6633): 15.6 mg/L
- MIC (B. subtilis ATCC 6633; B. subtilis ATCC 6633): 15.6 mg/L
- MBC (B. subtilis ATCC 6633; [25]): 0.049 µM/mL
- MIC (B. subtilis ATCC 6633; [25]): 0.049 µM/mL
- minimal inhibition concentration (MIC), range [8]: 0.24 to 250 µg/mL
- MBC (A. israeli ATCC 10049; A. israeli ATCC 10049): 3.9 mg/L
- MIC (A. israeli ATCC 10049; A. israeli ATCC 10049): 0.49 mg/L
- MBC (A. israeli ATCC 10049; [26]): 0.012 µM/mL
- MIC (A. israeli ATCC 10049; [26]): 0.0015 µM/mL
